Experimental data taken from patent US20260103474A1, “NOVEL COMPOUNDS FOR THE DIAGNOSIS OF TDP-43 PROTEINOPATHIES” (AC IMMUNE SA, priority 2022, published 2026).
Where two headings read alike, the source gives them in different places.

How the values were obtained:
[1] = biological target: T1, Human brain derived TDP-43 aggregates (Homo sapiens, UniProt Q13148); assay: Micro-radiobinding competition assay for binding affinity to TDP-43; conditions: for Ki: 0.24 nM to 2 μM vs tritiated reference ligand at 40 nM; for Human brain derived TDP-43 aggregates Mean % competition at 250 nM: non-radiolabeled compound at 250 nM vs tritiated reference ligand at 40 nM; for Human brain derived TDP-43 aggregates Mean % competition at 250 nM / Human brain derived TDP-43 aggregates Mean % competition at 2 μM: FTD sarkosyl-insoluble brain extracts; for Human brain derived TDP-43 aggregates Mean % competition at 2 μM: non-radiolabeled compound at 2 μM vs tritiated reference ligand at 40 nM
T1 construct: Human FTD sarkosyl-insoluble brain extracts were spotted onto microarray slides
Description: Human brain extracts were prepared as described in Laferriere et al., 2019, Nature Neurosc. A sample of brain tissue (frontal or temporal cortex) was homogenized at 1:4 (w/v) ratio in the homogenization-solubilization (HS) buffer at 4° C. using tissue homogenizer (Precellys) with CKmix homogenization tubes. The following sequence was used for homogenization: 3 cycles of 30 seconds at 5000 rpm (with 15 seconds pause between each cycle). Homogenized samples were aliquoted and stored at −80° C. in 1.5 mL low protein binding tubes.
Brain homogenates were thawed on ice and resuspended in HS buffer to obtain a final concentration of 2% sarkosyl, 1 unit/μL Benzonase and 1 mM MgCl2. The samples were then incubated at 37° C. under constant shaking at 600 rpm on a thermomixer for 45 minutes (min). The supernatants were collected in a new tube (sarkosyl-soluble fraction, S1). The pellet was resuspended in 1000 μL of myelin floatation buffer and centrifuged at 20,000 g for 60 min at 4° C. The supernatant was carefully removed to remove all the floating lipids. This step was repeated if all the lipids could not be removed in a single step. The pellet was subsequently washed with Phosphate-Buffered Saline (PBS) and centrifuged for 30 min at 20,000 g at 4° C. The final pellet was resuspended in 200 μL PBS and stored at −80° C. (sarkosyl-insoluble fraction). The samples were analyzed by immunoblotting in denaturing conditions.
Human FTD sarkosyl-insoluble brain extracts were spotted onto microarray slides. The slides were incubated with a tritiated reference ligand at 40 nM, and the example compounds (non-radiolabeled) at 2 μM and 250 nM. […] After incubation, slides were washed and scanned by a real-time autoradiography system (BeaQuant, ai4R). Quantification of the signal was performed by using the Beamage image analysis software (ai4R). Non-specific signal was determined with an excess of non-radiolabeled reference compound (2 μM) and specific binding was calculated by subtracting the non-specific signal from the total signal. Competition was calculated as percent, where 0% was defined as the specific binding in the presence of vehicle and 100% as the values obtained in the presence of excess of the non-radiolabeled reference compound. Ki values were calculated in GraphPad Prism8 by applying a nonlinear regression curve fit using a one site, specific binding model. Measurements were performed with at least two technical replicates in the two-concentration competition experiment and with one technical replicate in the experiments including a range of concentrations. For compounds tested in more than one experiment, the mean of the replicates or Ki values in independent experiments is reported.

Abeta = biological target: T2, Abeta (Homo sapiens, UniProt P05067); assay: Radiobinding competition assay using Abeta reference compound on AD insoluble fraction of brain homogenates; assay type: binding; conditions: against [3H]Abeta reference compound
T2 construct: an AD donor with confirmed burden of Tau and Abeta aggregates; from tissue; host or cells: frontal cortex of a human AD donor, Triton/sucrose-insoluble fraction
Description: Approximately 4 g of frozen tissue block from frontal cortex brain region was used from an AD donor with confirmed burden of Tau and Abeta aggregates. The tissue was homogenized in three volumes (1:3 w/v) of high salt buffer (50 mM Tris-HCl pH 7.5, 750 mM NaCl, 5 mM EDTA) supplemented with protease inhibitors (Complete; Roche 11697498001) at 4° C. with a glass Dounce homogenizer. The homogenate was transferred into polycarbonate centrifuge bottles (16×76 mm; Beckman 355603) and centrifuged at 100,000×g (38,000 RPM) in an ultracentrifuge (Beckman, XL100K) for 60 minutes at 4° C. using a pre-cooled 70.1 rotor (Beckman, 342184). Pellets were resuspended in high salt buffer supplemented with 1% Triton X-100 and homogenized at 4° C. with a syringe. The homogenates were centrifuged again at 100,000×g (38,000 RPM, 70.1 rotor) for 60 minutes at 4° C. Pellets were resuspended in high salt buffer supplemented with 1% Triton X-100 and 1 M sucrose and homogenized at 4° C. with a syringe. The homogenates were centrifuged at 100,000×g (38,000 RPM, 70.1 rotor) for 60 minutes at 4° C. The resulting pellets containing insoluble fraction were resuspended in PBS (1:2 w/v relative to starting tissue weight), aliquoted and stored at −80° C. until use.
The reaction was performed in assay buffer (50 mM Tris pH 7.5 in 0.9% NaCl, 0.1% BSA) and incubated for two hours at room temperature (RT). Samples in duplicate were then filtered under vacuum in GF/C filter plates (PerkinElmer) to trap the aggregates with the bound radioligand and washed with 100 μL ice-cold 50 mM Tris pH 7.5. The GF/C filters were then dried and scintillation liquid (UltimateGold, PerkinElmer, 6013151) was added in each well. The filters were analyzed on a Microbeta2 scintillation counter (PerkinElmer). Values for the maximal signal were obtained in the absence of non-radiolabeled compound, while 100% displacement was obtained using 1 μM of non-radiolabeled reference compound. Ki values were calculated by nonlinear regression, using a one site—fit Ki model in Prism V7 (GraphPad).

[2] = cells printed in μM, read-out: Ki on AD brain homogenates
[3] = read-out: Ki (nM) on AD brain homogenates

T1 sequence (Q13148 261-414 limits assumed): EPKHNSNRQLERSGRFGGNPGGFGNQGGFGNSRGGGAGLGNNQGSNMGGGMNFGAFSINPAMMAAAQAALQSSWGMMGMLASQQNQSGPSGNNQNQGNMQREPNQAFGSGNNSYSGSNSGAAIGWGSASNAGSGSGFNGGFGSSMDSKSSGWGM
T2 sequence (P05067 672-713 limits assumed): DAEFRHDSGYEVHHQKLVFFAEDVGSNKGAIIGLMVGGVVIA

Structure (SMILES)	Ki [1] [nM]	Human brain derived TDP-43 aggregates Mean % competition at 250 nM [1] [%]	Human brain derived TDP-43 aggregates Mean % competition at 2 μM [1] [%]	Ki (Abeta; [2]) [µM]	Ki (Abeta; [3]) [µM]
O=C1c2sc(-c3ccc(N4CCC[C@H](F)C4)nc3F)nc2CCN1c1cnsc1 [Compound 27, (S)-2-(2-fluoro-6-(3-fluoropiperidin-1-yl)pyridin-3-yl)-5-(isothiazol-4-yl)-6,7-dihydrothiazolo[5,4-c]pyridin-4(5H)-one]	48	57	94	> 1	
O=C1c2sc(-c3ccc(N4CC[C@H](F)C4)nc3F)nc2CCN1c1cnsc1 [Compound 25, (S)-2-(2-fluoro-6-(3-fluoropyrrolidin-1-yl)pyridin-3-yl)-5-(isothiazol-4-yl)-6,7-dihydrothiazolo[5,4-c]pyridin-4(5H)-one]	48	78	96	> 1	
O=C1c2sc(-c3ccc(N4CC[C@@H](F)C4)nc3F)nc2CCN1c1cncnc1 [Compound 13]		57	84	> 1	
O=C1c2sc(-c3ccc(N4CCC[C@H](F)C4)nc3F)nc2CCN1c1ncccn1 [Compound 35]	49	55	70	> 1	
O=C1c2sc(-c3ccc(N4CCCC4)nc3F)nc2CCN1c1ccncc1 [Compound 14]		48	34		
O=C1c2sc(-c3ccc(N4CCC[C@@H](F)C4)nc3F)nc2CCN1c1cnsc1 [Compound 24, (R)-2-(2-fluoro-6-(3-fluoropiperidin-1-yl)pyridin-3-yl)-5-(isothiazol-4-yl)-6,7-dihydrothiazolo[5,4-c]pyridin-4(5H)-one]	65	61	83	> 1	
O=C1c2sc(-c3ccc(N4CC[C@@H](F)C4)nc3F)nc2CCN1c1ccncc1 [Example 7]	51	51	73	> 1	
O=C1c2sc(-c3ccc(N4CCCC4)nc3F)nc2CCN1c1ccc(F)nc1 [Compound 12]		56	59		
O=C1c2sc(-c3ccc(N4CC[C@@H](F)C4)nc3F)nc2CCN1c1cnsc1 [Compound 22]	54	68	100		
Cn1cc(N2CCc3nc(-c4ccc(N5CC[C@@H](F)C5)nc4F)sc3C2=O)cn1 [Compound 11]		73	102		

More lines, in order of falling Ki [1], values ahead:

Ki [1] [nM]	Human brain derived TDP-43 aggregates Mean % competition at 250 nM [1] [%]	Human brain derived TDP-43 aggregates Mean % competition at 2 μM [1] [%]	Ki (Abeta; [2]) [µM]	Ki (Abeta; [3]) [µM]	Structure (SMILES)
43	45	86	> 1		Nc1cc(N2CCc3nc(-c4ccc(N5CCC[C@H](F)C5)nc4F)sc3C2=O)ccn1 [Compound 29]
36	60	86			O=C1c2sc(-c3ccc(N4CC[C@@H](F)C4)nc3F)nc2CCN1c1cscn1 [Compound 33]
31	62	75	> 1		O=C1c2sc(-c3ccc(N4CCCC4)nc3F)nc2CCN1c1cccnc1 [Compound 9, 2-(2-fluoro-6-(pyrrolidin-1-yl)pyridin-3-yl)-5-(pyridin-3-yl)-6,7-dihydrothiazolo[5,4-c]pyridin-4(5H)-one]
30	46	85			Cn1cc(N2CCc3nc(-c4ccc(N5CCCC5)nc4F)sc3C2=O)cn1 [Compound 21]
25	80	70	> 1		O=C1c2sc(-c3ccc(N4CC[C@H](F)C4)nc3F)nc2CCN1c1ccncn1 [Compound 37]
16	52	75		0.35	Nc1cc(N2CCc3nc(-c4ccc(N5CCCC5)nc4F)sc3C2=O)ccc1F [Compound 10, 5-(3-amino-4-fluorophenyl)-2-(2-fluoro-6-(pyrrolidin-1-yl)pyridin-3-yl)-6,7-dihydrothiazolo[5,4-c]pyridin-4(5H)-one]
13	55	91		0.318	Nc1cc(N2CCc3nc(-c4ccc(N5CC[C@H](F)C5)nc4F)sc3C2=O)ccn1 [Compound 26]
11	62	86	> 1		O=C1c2sc(-c3ccc(N4CC[C@@H](F)C4)nc3F)nc2CCN1c1ncccn1 [Compound 15, 2-[2-fluoro-6-[(3R)-3-fluoropyrrolidin-1-yl]-3-pyridyl]-5-pyrimidin-2-yl-6,7-dihydrothiazolo[5,4-c]pyridine-4-one]
7	66	93			N#Cc1c(N)cccc1N1CCc2nc(-c3ccc(N4CCC[C@@H](F)C4)nc3F)sc2C1=O [Compound 30]
7	66	75			O=C1c2sc(-c3ccc(N4CC[C@H](F)C4)nc3F)nc2CCN1c1ccnnc1 [Compound 36]
5	67	96	> 1		O=C1c2sc(-c3ccc(N4CC[C@H](F)C4)nc3F)nc2CCN1c1ncccn1 [Compound 16]
5	60	77	> 1		N#Cc1c(N)cccc1N1CCc2nc(-c3ccc(N4CC[C@@H](F)C4)nc3F)sc2C1=O [Compound 34]
4	65	80	> 1		N#Cc1c(N)cccc1N1CCc2nc(-c3ccc(N4CC[C@H](F)C4)nc3F)sc2C1=O [Compound 32]
